These results are taken from ChEMBL document CHEMBL1201862, “PubChem BioAssay data set” (2004).

Test systems include NCI-H522; MCF7; Malme-3M; M14; OVCAR-8; U-251; SW-620; NCI-H226; COLO 205; SN12C; HOP-62; SR; SK-MEL-5; HL-60; SF-539; SF-295; RPMI-8226; TK-10; CAKI-1; KM12.
What all share (experiment): inhibition of tumour cell growth, NCI panel, 48 h

The structures appear in SMILES notation.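 Five concentrations, 48 hours, 96-well plates. At the GI50, growth is halved.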 Calls of active or inactive are those of the source. Rule as the data show it: active = GI50 up to about 1.1 µM and inactive = higher.

As for `O=C1OCC(CN2CCC(n3c(=O)[nH]c4ccccc43)CC2)=C1c1ccccc1`, the GI50 was 19.2 µM (inactive) in the test on NCI-H522; 28.2 µM (inactive) with MCF7; 22.8 µM (inactive) with Malme-3M; 18.3 µM (inactive) with M14; 17.1 µM (inactive) with OVCAR-8; 35.5 µM (inactive) in the test on U-251. In addition, the GI50 was 34.9 µM (inactive) with SW-620; 25.4 µM (inactive) in the test on NCI-H226; 14.6 µM (inactive) with COLO 205; 22 µM (inactive) with SN12C; 28.5 µM (inactive) in the test with HOP-62; 30.2 µM (inactive) in the test with SR. The GI50 with SK-MEL-5 is 15.3 µM (inactive); in the test on HL-60 it was 15.5 µM (inactive); in the test with SF-539 it was 18.9 µM (inactive); in the test on SF-295 it was 26.4 µM (inactive); with RPMI-8226 it was 28.8 µM (inactive); in the test with TK-10 it was 28.1 µM (inactive). Moreover, the GI50 in the test on CAKI-1 was 22.9 µM (inactive); in the test with KM12 it was 16.3 µM (inactive).

As to `c1ccc2c(c1)nnn2C1CCCCO1` (stereo not given), the GI50 in the test on NCI-H522, in the test with MCF7, with Malme-3M, in the test with M14, with OVCAR-8 and in the test with U-251 was > 100 µM (inactive) throughout. Moreover, the GI50 in the test on SW-620, in the test with NCI-H226, in the test with COLO 205, in the test with SN12C, in the test on HOP-62 and in the test on SR was > 100 µM (inactive) throughout. For the same molecule, the GI50 with SK-MEL-5, in the test with HL-60, in the test on SF-539, in the test on SF-295, with RPMI-8226 and in the test with TK-10 was > 100 µM (inactive) each time. The GI50 in the test with CAKI-1 and in the test on KM12 was > 100 µM (inactive) throughout.

Take `N#Cc1cc2c(n(C3OC(CO)C(O)C(O)C3O)c1=S)CCCCC2` (stereo not given): the GI50 in the test with NCI-H522, with MCF7, in the test on Malme-3M, in the test on M14, in the test with OVCAR-8 and in the test with U-251 was > 100 µM (inactive) each time. Also, the GI50 in the test on NCI-H226, in the test on COLO 205, in the test with SN12C, in the test with HOP-62, in the test with SR and in the test with SK-MEL-5 was > 100 µM (inactive) in each case. The GI50 with HL-60, with SF-539, in the test on SF-295, with RPMI-8226, in the test on TK-10 and in the test on CAKI-1 was > 100 µM (inactive) each time. The GI50 in the test with KM12 was > 100 µM (inactive).

With `COc1ccc(C(NCCNC(c2ccc(OC)c(OC)c2)c2cc3c(cc2O)OCO3)c2cc3c(cc2O)OCO3)cc1OC` (stereo not given), the GI50 was 1.74 µM (inactive) in the test on NCI-H522; 1.42 µM (inactive) in the test with MCF7; 4.5 µM (inactive) in the test on Malme-3M; 2.92 µM (inactive) in the test on M14; 1.89 µM (inactive) in the test on OVCAR-8; 2.87 µM (inactive) in the test with U-251. Besides, the GI50 in the test on SW-620 was 1.29 µM (inactive); in the test with NCI-H226, 8.02 µM (inactive); in the test with COLO 205, 2.89 µM (inactive); with SN12C, 1.92 µM (inactive); with HOP-62, 8.18 µM (inactive); in the test with SR it was 0.682 µM (active). In addition, the GI50 with SK-MEL-5 is 7.05 µM (inactive); with HL-60 it was 1.71 µM (inactive); in the test with SF-539 it was 2.27 µM (inactive); in the test on SF-295 it was 5.32 µM (inactive); with RPMI-8226 it was 2 µM (inactive); in the test with TK-10, 4.04 µM (inactive). The values for the GI50 with CAKI-1 and in the test with KM12 were 2.64 µM (inactive) and 2.67 µM (inactive), respectively.

Take `CS(=N)(=O)CCC(N)P(=O)(O)O` (stereo not given): the GI50 with NCI-H522, in the test on MCF7, in the test with Malme-3M, in the test with M14, in the test on OVCAR-8 and in the test on U-251 was > 100 µM (inactive) each time. Also, the GI50 with SW-620, with NCI-H226, with COLO 205, in the test on SN12C, with HOP-62 and with SR was > 100 µM (inactive) throughout. Moreover, the GI50 in the test with SK-MEL-5, in the test on HL-60, in the test on SF-539, with SF-295, in the test on RPMI-8226 and with TK-10 was > 100 µM (inactive) each time. Further, the GI50 with CAKI-1 and in the test on KM12 was > 100 µM (inactive) throughout.

Take `C/C(=N\Nc1nc2cc(F)ccc2s1)c1ccccn1`: the GI50 in the test with NCI-H522 is < 0.01 µM (active); in the test on MCF7 it was 0.0199 µM (active); in the test with Malme-3M, < 0.01 µM (active); in the test with M14, 0.0171 µM (active); in the test with OVCAR-8 it was 0.0194 µM (active); in the test on U-251, 0.0402 µM (active). Besides, the GI50 in the test with SW-620 is < 0.01 µM (active); in the test on NCI-H226 it was < 0.0242 µM (active); in the test with COLO 205 it was < 0.01 µM (active); in the test with SN12C it was 0.0101 µM (active); in the test on HOP-62, 0.381 µM (active); in the test on SR it was 0.0313 µM (active). Also, the GI50 in the test with SK-MEL-5 is 0.053 µM (active); in the test on HL-60, < 0.01 µM (active); in the test with SF-539, 0.0906 µM (active); in the test with SF-295, 0.275 µM (active); in the test with RPMI-8226, 0.136 µM (active); with CAKI-1, < 0.01 µM (active). Also, the GI50 with KM12 is 0.165 µM (active).

As for `N/N=C(/CC(O)(C(F)(F)F)C(F)(F)F)c1ccccc1`, the GI50 with NCI-H522, in the test on MCF7, in the test with Malme-3M, in the test on M14, with OVCAR-8 and in the test with U-251 was > 10 µM (inactive) each time. The GI50 in the test with SW-620, in the test with NCI-H226, in the test on COLO 205, in the test with SN12C, in the test on HOP-62 and in the test on SR was > 10 µM (inactive) in each case. In addition, the GI50 with SK-MEL-5, in the test on HL-60, with SF-539, with SF-295, in the test with RPMI-8226 and in the test with TK-10 was > 10 µM (inactive) each time. Besides, the GI50 in the test with CAKI-1 and with KM12 was > 10 µM (inactive) in each case.

With `COc1ccc(CNNC(=O)c2cc[n+]([BH2-]C#N)cc2)cc1OC`, the GI50 in the test on NCI-H522, in the test with MCF7, in the test on Malme-3M, with M14, in the test with OVCAR-8 and in the test on U-251 was > 100 µM (inactive) in each case. In addition, the GI50 in the test with SW-620, in the test with NCI-H226, in the test with COLO 205, in the test with SN12C, in the test with SR and with SK-MEL-5 was > 100 µM (inactive) throughout. In addition, the GI50 in the test with HL-60, in the test on SF-539, in the test with SF-295, in the test with RPMI-8226, in the test with TK-10 and in the test with CAKI-1 was > 100 µM (inactive) throughout. Besides, the GI50 in the test on KM12 was > 100 µM (inactive).

Turning to `CC(=O)OCC1=C(C)C[C@H]([C@@H](COC(C)=O)C2CCC3C4C[C@H]5O[C@]56CC=CC(=O)[C@]6(C)C4CC[C@@]32C)OC1=O` (stereo not given in full), the GI50 in the test with NCI-H522 was 0.134 µM (active); in the test on MCF7 it was 0.00955 µM (active); in the test on Malme-3M it was 0.274 µM (active); in the test on M14, 0.188 µM (active); with OVCAR-8, 0.15 µM (active); in the test with U-251 it was 0.329 µM (active). Also, the GI50 in the test on SW-620 is 0.115 µM (active); in the test with NCI-H226, 0.598 µM (active); in the test with COLO 205, 0.307 µM (active); in the test on SN12C, 0.444 µM (active); with HOP-62, 0.634 µM (active); in the test on SR it was 0.005 µM (active). Further, the GI50 with SK-MEL-5 was 0.269 µM (active); with HL-60, 0.0384 µM (active); in the test on SF-295, 1.19 µM (inactive); in the test on RPMI-8226 it was 0.0393 µM (active); in the test with TK-10, 0.993 µM (active); in the test on CAKI-1 it was 0.671 µM (active). In addition, in the test on KM12, the GI50 is 0.138 µM (active).

Consider `O=C(/C=C/c1ccc(O)c(O)c1)OCc1ccccc1` [BENZYL CAFFEATE], for which the GI50 is 0.809 µM (active) with NCI-H522; 7.8 µM (inactive) with MCF7; 11.8 µM (inactive) with Malme-3M; 11.1 µM (inactive) in the test with M14; 14.5 µM (inactive) in the test with U-251; 17.4 µM (inactive) with SW-620. For the same molecule, the GI50 was 31.3 µM (inactive) in the test on NCI-H226; 22.4 µM (inactive) in the test with COLO 205; 11.6 µM (inactive) in the test with SN12C; 25.6 µM (inactive) with HOP-62; 3.74 µM (inactive) in the test with SR; 9.73 µM (inactive) with SK-MEL-5. Besides, the GI50 is 0.938 µM (active) with HL-60; 7.06 µM (inactive) in the test with SF-539; 11.2 µM (inactive) in the test on SF-295; 10.6 µM (inactive) in the test with RPMI-8226; 15.4 µM (inactive) in the test on TK-10; 27 µM (inactive) in the test on CAKI-1. In the test with KM12, the GI50 was 8.45 µM (inactive).
